Patent publication US20060110803A1 (Crucell Holland B.V., priority 2003, published 2006)

system: antibodies in sera of individuals which have been and/or are infected by SARS-CoV (SARS-green, SARS-yellow, 1a, 1b, 2, 6, 37, 62, London); type: binding, human

Sequence | recognition by sera of SARS-CoV infected individuals, looped/cyclic form | recognition by sera of SARS-CoV infected individuals (domains homologous with OC43 spike) | recognition by sera of SARS-CoV infected individuals, linear form
ALGKLQDVVNQNAQA [SEQ ID NO:954] | recognized in looped/cyclic form | – | –
KPTKRSFIEDLLF [SEQ ID NO:1244] | – | recognition by sera derived from individuals which have been and/or are still infected by SARS-CoV | –
KLQDVVNQNAQALNT [SEQ ID NO:957] | recognized in looped/cyclic form | – | –
LGKLQDVVNQNAQAL [SEQ ID NO:955] | recognized in looped/cyclic form | – | –
GKLQDVVNQNAQALN [SEQ ID NO:956] | recognized in looped/cyclic form | – | –
TPPALNCYWPLNDYG [SEQ ID NO:496] | recognized in looped/cyclic form | – | –
SLTTTSTALGKLQDV [SEQ ID NO:947] | recognized in looped/cyclic form | – | –
PFSPDGKPCTPPALN [SEQ ID NO:487] | – | – | recognized in linear form
VDCNMYICGDSTECA [SEQ ID NO:746] | – | – | recognized in linear form
LTTTSTALGKLQDVV [SEQ ID NO:948] | recognized in looped/cyclic form | – | –
LDSFKEELDKYFKNH [SEQ ID NO:1143] | recognized in looped/cyclic form | – | –
YVWLGFIAGLIAIVM [SEQ ID NO:1211] | recognized in looped/cyclic form | – | –
QDVVNQNAQALNTLV [SEQ ID NO:959] | recognized in looped/cyclic form | – | –
SGTATAGWTFGAGAA [SEQ ID NO:889] | – | – | recognized in linear form
EVMPVSMAKTSVDCN [SEQ ID NO:735] | recognized in looped/cyclic form | – | –
MFIFLLFLTLTSGSD [SEQ ID NO:40] | recognized in looped/cyclic form | – | –
ITTEVMPVSMAKTSV [SEQ ID NO:732] | recognized in looped/cyclic form | – | –
SRLDKVEAEVQIDRL [SEQ ID NO:992] | recognized in looped/cyclic form | – | –
FNGLTVLPPLLTDDM [SEQ ID NO:865] | recognized in looped/cyclic form | – | –
KNLNESLIDLQELGK [SEQ ID NO:1187] | recognized in looped/cyclic form | – | –
AKTSVDCNMYICGDS [SEQ ID NO:742] | – | – | recognized in linear form
AQALNTLVKQLSSNF [SEQ ID NO:966] | recognized in looped/cyclic form | – | –
TQHTSSMRGVYYPDE [SEQ ID NO:70] | recognized in looped/cyclic form | – | –
RGVYYPDEIFRSDTL [SEQ ID NO:77] | recognized in looped/cyclic form | – | –

Sequence | recognition by sera of SARS-CoV infected individuals, looped/cyclic form | recognition by sera of SARS-CoV infected individuals (domains homologous with OC43 spike) | recognition by sera of SARS-CoV infected individuals, linear form
TSPDVDLGDISGINA [SEQ ID NO:1156] | recognized in looped/cyclic form | – | –
VAKNLNESLIDLQEL [SEQ ID NO:1185] | recognized in looped/cyclic form | – | –
QALNTLVKQLSSNFG [SEQ ID NO:967] | recognized in looped/cyclic form | – | –
FKNHTSPDVDLGDIS [SEQ ID NO:1152] | recognized in looped/cyclic form | – | –
VVNQNAQALNTLVKQ [SEQ ID NO:961] | recognized in looped/cyclic form | – | –
SGSDLDRCTTFDDVQ [SEQ ID NO:51] | recognized in looped/cyclic form | – | –
WLGFIAGLIAIVMVT [SEQ ID NO:1213] | recognized in looped/cyclic form | – | –
NHTSPDVDLGDISGI [SEQ ID NO:1154] | recognized in looped/cyclic form | – | –
KFNGLTVLPPLLTDD [SEQ ID NO:864] | recognized in looped/cyclic form | – | –
NNTVYDPLQPELDSF [SEQ ID NO:1132] | recognized in looped/cyclic form | – | –
DVVNQNAQALNTLVK [SEQ ID NO:960] | recognized in looped/cyclic form | – | –
LQPELDSFKEELDKY [SEQ ID NO:1139] | recognized in looped/cyclic form | – | –
LQDVVNQNAQALNTL [SEQ ID NO:958] | recognized in looped/cyclic form | – | –
PCTPPALNCYWPLND [SEQ ID NO:494] | recognized in looped/cyclic form | – | –
QKFNGLTVLPPLLTD [SEQ ID NO:863] | recognized in looped/cyclic form | – | –
GVYYPDEIFRSDTLY [SEQ ID NO:78] | recognized in looped/cyclic form | – | –
VSGTATAGWTFGAGA [SEQ ID NO:888] | – | – | recognized in linear form
KYFKNHTSPDVDLGD [SEQ ID NO:1150] | recognized in looped/cyclic form | – | –
IINNTVYDPLQPELD [SEQ ID NO:1130] | recognized in looped/cyclic form | – | –
TTSTALGKLQDVVNQ [SEQ ID NO:950] | recognized in looped/cyclic form | – | –
NTVYDPLQPELDSFK [SEQ ID NO:1133] | recognized in looped/cyclic form | – | –
NQNAQALNTLVKQLS [SEQ ID NO:963] | recognized in looped/cyclic form | – | –
TTTSTALGKLQDVVN [SEQ ID NO:949] | recognized in looped/cyclic form | – | –
AKNLNESLIDLQELG [SEQ ID NO:1186] | recognized in looped/cyclic form | – | –

system: antibodies in control sera (pooled serum of 10 healthy LUMC hospital workers; commercial negative donor pooled serum); type: binding, human

Sequence | recognition by control sera (domains homologous with OC43 spike)
KPTKRSFIEDLLF [SEQ ID NO:1244] | recognition by control sera derived from individuals which have not been infected by SARS-CoV

system: antibodies in rabbit serum obtained by immunizing a rabbit with the SARS-CoV strain Frankfurt 1; type: binding

Sequence | recognition by rabbit serum
CTTFDDVQAPNYTQH [SEQ ID NO:58] | recognized by the rabbit serum
PTTFMLKYDENGTIT [SEQ ID NO:287] | recognized by the rabbit serum
DSVRDPKTSEILDIS [SEQ ID NO:588] | recognized by the rabbit serum
ALGKLQDVVNQNAQA [SEQ ID NO:954] | recognized by the rabbit serum
TDSVRDPKTSEILDI [SEQ ID NO:587] | recognized by the rabbit serum
CDNPFFAVSKPMGTQ [SEQ ID NO:172] | recognized by the rabbit serum
TTFDDVQAPNYTQHT [SEQ ID NO:59] | recognized by the rabbit serum
SDFTDSVRDPKTSEI [SEQ ID NO:584] | recognized by the rabbit serum
LDRCTTFDDVQAPNY [SEQ ID NO:55] | recognized by the rabbit serum
RCTTFDDVQAPNYTQ [SEQ ID NO:57] | recognized by the rabbit serum
DFTDSVRDPKTSEIL [SEQ ID NO:585] | recognized by the rabbit serum
DVQAPNYTQHTSSMR [SEQ ID NO:63] | recognized by the rabbit serum
KLQDVVNQNAQALNT [SEQ ID NO:957] | recognized by the rabbit serum
KYDENGTITDAVDCS [SEQ ID NO:293] | recognized by the rabbit serum
TTFMLKYDENGTITD [SEQ ID NO:288] | recognized by the rabbit serum
STALGKLQDVVNQNA [SEQ ID NO:952] | recognized by the rabbit serum
LGKLQDVVNQNAQAL [SEQ ID NO:955] | recognized by the rabbit serum
FTDSVRDPKTSEILD [SEQ ID NO:586] | recognized by the rabbit serum
MLKYDENGTITDAVD [SEQ ID NO:291] | recognized by the rabbit serum

Sequence | recognition by rabbit serum
GKLQDVVNQNAQALN [SEQ ID NO:956] | recognized by the rabbit serum
TALGKLQDVVNQNAQ [SEQ ID NO:953] | recognized by the rabbit serum
TSTALGKLQDVVNQN [SEQ ID NO:951] | recognized by the rabbit serum
DRCTTFDDVQAPNYT [SEQ ID NO:56] | recognized by the rabbit serum
VQAPNYTQHTSSMRG [SEQ ID NO:64] | recognized by the rabbit serum
LKYDENGTITDAVDC [SEQ ID NO:292] | recognized by the rabbit serum
TFMLKYDENGTITDA [SEQ ID NO:289] | recognized by the rabbit serum
NPFFAVSKPMGTQTH [SEQ ID NO:174] | recognized by the rabbit serum
FMLKYDENGTITDAV [SEQ ID NO:290] | recognized by the rabbit serum
TFDDVQAPNYTQHTS [SEQ ID NO:60] | recognized by the rabbit serum
QAPNYTQHTSSMRGV [SEQ ID NO:65] | recognized by the rabbit serum
GYQPYRVVVLSFELL [SEQ ID NO:518] | recognized by the rabbit serum
FDDVQAPNYTQHTSS [SEQ ID NO:61] | recognized by the rabbit serum
DDVQAPNYTQHTSSM [SEQ ID NO:62] | recognized by the rabbit serum
DNPFFAVSKPMGTQT [SEQ ID NO:173] | recognized by the rabbit serum
IGYQPYRVVVLSFEL [SEQ ID NO:517] | recognized by the rabbit serum
GIGYQPYRVVVLSFE [SEQ ID NO:516] | recognized by the rabbit serum
TTSTALGKLQDVVNQ [SEQ ID NO:950] | recognized by the rabbit serum
